One test has as its system SK-BR-3 cells. Nature of the test: Cell Viability Assay (CellTiter-Glo), SK-BR-3. Type of test: cell-based.
The test system of test [1] is HER2 expressing cancer cell lines. To be noted: for activity compared with free Auristatin F, in words: summary of Table 1. On the procedure: Three HER2 expressing breast cancer cell lines (BT474, HCC1954 and SK-BR-3) and HER2 expressing gastric cancer cell line NCI-N87 were used in the viability assay. The cells were placed in opaque-walled 96-well plate and allowed to adhere overnight at 37° C. in 5% CO2 and 95% humidity atmosphere. Cell density per well: 7000 (BT474), 3000 (HCC1954), 5000 (NCI-N87), 4000 (SK-BR-3). The test compounds or conjugates were added to experimental wells, and incubate at 37° C. in 5% CO2 and 95% humidity atmosphere for 72 hours. The plates were equilibrated at room temperature for 30 min. CellTiter-Glo® reagent equal to the volume of cell culture medium present in each well was added. After cell lysis on an orbital shaker for 2 min, the plate was incubated at room temperature for 10 min. Luminescence were recorded using EnVision® Multilabel Reader (PerkinElmer, 2104-0010A). GraphPad Prism 5.0 was used to analyze the data. The dose response curves were determined, and the IC50 value was calculated.
Another assay measured the IC50 values for compounds 24 and 25 on the same cell lines and MCF7 breast cancer cell.

The next test has as its system HCC1954 cells. As to the kind of experiment: Cell Viability Assay (CellTiter-Glo), HCC1954. Type of test: cell-based.
In the next test the test system is NCI-N87 cells. Nature of the test: Cell Viability Assay (CellTiter-Glo), NCI-N87. It is filed as cell-based.
For the next test, the system named is BT-474 cells. Nature of the test: Cell Viability Assay (CellTiter-Glo), BT-474. Type of test: cell-based.
For another test, the system named is MCF7 breast cancer cell. Nature of the test: Cell Viability Assay (CellTiter-Glo), MCF7. Type of test: cell-based. To be noted: MCF7, Table 2 (another assay).
Setting [2] is: SK-BR-3, Table 2 (another assay).
Setting [3] is: HCC1954, Table 2 (another assay).
Where [4] appears, read: NCI-N87, Table 2 (another assay).
The mark [5] stands for this setting: BT-474, Table 2 (another assay).

Where a SMILES comes first, the peptide text is derived from it. [ ]: non-standard residue; d: D form. The star is where a group is joined. Dolaproine = CO[C@@H]([C@@H]1CCCN1)[C@@H](C)C(=O)O; Dil = CC[C@H](C)[C@H](NC)[C@@H](CC(=O)O)OC; NMe2Val = CC(C)[C@@H](C(=O)*)N(C)C Bounds are passed on as bounds.

Procedure for BT-474 cells: (§1) Compounds and conjugates were tested for their activity using the Cell Viability Assay (CellTiter-Glo® Luminescent Cell Viability Assay from Promega), which measures the number of viable cells in culture after treatment with the inventive compounds or conjugates for 72 hours based on quantitation of the ATP present (Cell Viability. IC50).
Procedure for HCC1954 cells: as §1
Procedure for MCF7 breast cancer cell: as §1
Procedure for NCI-N87 cells: as §1
Procedure for SK-BR-3 cells: as §1

For the molecule “poly(1-hydroxymethylethylene hydroxy-methyl formal)-SPA-(auristatin F 2-(2-hydroxy-ethoxy)-ethylamide L-Alanine)-(Trastuzumab-MCC) [Compound 16]”, the concentration for half-maximal inhibition (IC50) in the test with SK-BR-3 cells (SK-BR-3, 72 hours, Table 1) was 22 nM; with HCC1954 cells (HCC1954, 72 hours, Table 1) it was 0.13 nM; with NCI-N87 cells (NCI-N87, 72 hours, Table 1) it was 55.6 nM; in the test on BT-474 cells (BT-474, 72 hours, Table 1) it was 0.39 nM. In test [1], the “activity compared with free Auristatin F, in words” value is listed as “inhibition of HER2 increases significantly”.
The like results for “poly(1-hydroxymethylethylene hydroxy-methyl formal)-SPA-(auristatin F 2-(2-hydroxy-ethoxy)-ethylamide L-Alanine)-maleimide [Compound 14]” were, in that order, 48 nM, 32.2 nM, above 500 nM, 87.9 nM and “activity similar to free Auristatin F”.
For “poly(1-hydroxymethylethylene hydroxy-methyl formal)-SPA-(auristatin F 2-(2-hydroxy-ethoxy)-ethylamide L-Alanine)-Trastuzumab [Compound 17]” the same measures were below 0.05 nM, below 0.05 nM, below 0.05 nM, below 0.05 nM and “inhibition of HER2 increases significantly”.
The like results for “poly(1-hydroxymethylethylene hydroxy-methyl formal)-SPA-(auristatin F 2-(2-hydroxy-ethoxy)-ethylamide L-Alanine)-SSPy [Compound 15]” were, in that order, 37 nM, 23.9 nM, above 500 nM, 57.4 nM and “activity similar to free Auristatin F”.
For the molecule “poly(1-hydroxymethylethylene hydroxy-methyl formal)-SPA-(auristatin F 2-(2-hydroxy-ethoxy)-ethylamide L-Alanine)-Trastuzumab [Compound 25]”, the IC50 in the test with SK-BR-3 cells (setting [2]) was determined as 0.1 nM; in the test with HCC1954 cells (setting [3]) it was 0.2 nM; in the test with MCF7 breast cancer cell it was 3.3 nM; in the test on NCI-N87 cells (setting [4]), 0.3 nM; in the test on BT-474 cells (setting [5]), 0.4 nM. Moreover, in test [1] (summary of Table 2, same cell lines and MCF7), the “activity compared with compound 24 and controls, in words” value was “significant increase in activity as compared to compound 24”.
Consider “poly(1-hydroxymethylethylene hydroxy-methyl formal)-SPA-(auristatin F 2-(2-hydroxy-ethoxy)-ethylamide L-Alanine)-maleimide [Compound 24]”, for which the IC50 came out at 56.6 nM with SK-BR-3 cells (setting [2]); 45.9 nM in the test on HCC1954 cells (setting [3]); 230 nM in the test on MCF7 breast cancer cell; 91.5 nM in the test on NCI-N87 cells (setting [4]); 58 nM with BT-474 cells (setting [5]).
Consider `N.N.[Cl][Pt][Cl]` [Cisplatin, reference compound], for which the IC50 in the test on SK-BR-3 cells (SK-BR-3, 72 hours, Table 1) was 1920 nM; with SK-BR-3 cells (setting [2]), 871 nM; in the test with HCC1954 cells (HCC1954, 72 hours, Table 1), 6050 nM; in the test with HCC1954 cells (setting [3]) it was 6230 nM; in the test on MCF7 breast cancer cell, 9150 nM; in the test with NCI-N87 cells (NCI-N87, 72 hours, Table 1), 4560 nM. Besides, the IC50 with NCI-N87 cells (setting [4]) is 1660 nM; in the test with BT-474 cells (BT-474, 72 hours, Table 1), above 100000 nM; in the test on BT-474 cells (setting [5]), 38500 nM.
Consider `CC[C@H](C)[C@@H]([C@@H](CC(=O)N1CCC[C@H]1[C@H](OC)[C@@H](C)C(=O)N[C@@H](Cc1ccccc1)C(=O)O)OC)N(C)C(=O)[C@@H](NC(=O)[C@H](C(C)C)N(C)C)C(C)C` [Auristatin F, reference compound] (NMe2Val-V[Dil][Dolaproine]F-OH), for which the IC50 was 51 nM in the test on SK-BR-3 cells (SK-BR-3, 72 hours, Table 1); 233 nM in the test on SK-BR-3 cells (setting [2]); 38.2 nM in the test on HCC1954 cells (HCC1954, 72 hours, Table 1); 200 nM in the test on HCC1954 cells (setting [3]); 1950 nM in the test with MCF7 breast cancer cell; 69.8 nM in the test on NCI-N87 cells (NCI-N87, 72 hours, Table 1). For the same molecule, the IC50 with NCI-N87 cells (setting [4]) turned out to be 386 nM; with BT-474 cells (BT-474, 72 hours, Table 1), 264 nM; in the test with BT-474 cells (setting [5]), 1540 nM.

Source of the values: patent US11529422B2, “Polymer linkers and their uses” (priority 2016, dated 2022).
